Ends that are not written are not given here. FAM = 5(6)-carboxyfluorescein; Ahx = NCCCCCC(=O)O
Tests used:
mouse brain [1] = assay: In vivo play-off screen with 10 published CNS homing peptide-phages; settings: phage pool i.v., 1 h; acid and detergent perfusion
Protocol: Play-off screen was carried out with 10 previously published BBB penetrating/CNS homing peptide-phages. […] Oligonucleotides were annealed and ligated into the phage genome using T7Select 415-1 cloning kit (Novagen) and the T7Select System Manual. Each peptide-phage was separately amplified in liquid bacterial culture, precipitated with PEG, recovered in PBS and titered. Phages were mixed in equimolar ratios and purified with CsCl-ultracentrifugation and dialysis. Titer of the play-off pool was determined and mice were intravenously injected with 1×10^10 pfu of phage pool. After one hour of circulation time, mice were perfused with acid buffer (500 mM NaCl, 0.1 M glycine, 1% BSA, pH2.5) and detergent buffer (1% NP40 in PBS), collected organs were homogenized and phage pools amplified for high-throughput sequencing.
Novel BBB penetrating and CNS homing peptide was identified in a step by step process including a phage play-off screens, alanine scanning mutagenesis and phage display with unique library. The first selection step included a phage play-off screen with ten previously published CNS homing peptides (Table 5). To ensure collecting BBB penetrating and CNS homing peptides, phage play-off pool was intravenously (iv) injected into the mice and perfusion was done with acid and detergent buffers to remove unbound phages and brake the endothelial layer of blood vessels. […]

mouse brain [2] = assay: In vivo phage display with CX4CYX library
Protocol: In vivo phage display with CX4CYX library was performed in three selection rounds. Phage library was injected intravenously to Balb/c mice and allowed to circulate for one hour. After circulation, the animals were anesthetized and perfused intracardially with acid and detergent buffers. Brain and control organs were collected and homogenized in 1% NP40-LB. Bound phages were rescued by amplification in E. coli and their genomic DNA was sequenced by Ion Torrent next generation DNA sequencing system.
A novel phage library CX4CYX was constructed based on the alanine-leucine screen to find new brain homing peptides). This knowledge directed us to construct a novel phage library CX4CYX (X—any amino acid), where Cys1, Cys6 and Tyr7 remained in their intact positions, and the four amino acid variable-domain laid between the cysteines, and one amino acid variability after Tyr7. Three rounds of phage bio-panning was performed to allow enrichment of peptides in the brain. Again acid and detergent buffers were used for perfusion to remove non-specifically bound phages from the brain after systemic administration of phage library (round 1) and recovered brain phage pools (round 2 and 3). HTS reads from round 1 to round 3 indicated decent enrichment of in-frame peptides in the brain (Table 6).

Neuro2A cells = assay: In vitro FAM-peptide binding and uptake; type: cell-based, mouse; settings: 30 μM, 1 h, 4 °C (binding) or 37 °C (uptake)
Protocol: To assess the binding and uptake of Cerepep peptide, Neuro2A were cultured in 24-well plates on polylysine coated glass coverslips until 80-90% confluency. FAM-Cerepep (FAM-Ahx-SRRVISRAKLAAAL-OH (SEQ ID NO:9)) or control FAM-RPAR (FAM-RPARPAR-OH (SEQ ID NO:74)) peptide with the final concentration of 30 µM was added to Neuro2A cells in growth media and incubated at 4 °C (to study the binding) or 37 °C (to study the uptake) for 1 h. The cells were washed 4 times with growth media and fixed in methanol. The samples were stained with anti-fluorescein antibody to enhance the FAM signal. The fixed cells were first blocked with PBST (PBS+0.05% Tween 20), 5% BSA, 5% goat serum at RT for 30 min, followed by incubation with rabbit anti-fluorescein IgG (cat. no. A889, Thermo Fisher Scientific, MA, USA) at 4 °C for O/N and Alexa 647 goat anti-rabbit IgG secondary antibody at RT for 1h. Nuclei were counterstained with DAPI at 1 μg/ml. The coverslips were mounted on glass slides with Fluoromount-G (Electron Microscopy Sciences, PA, USA), imaged using confocal microscopy (Olympus FV1200MPE, Tokyo, Japan) and analyzed using the FV10-ASW4.2 software.
The binding (at 4 °C) and uptake (at 37 °C) of synthetic FAM-Cerepep by Neuro2A cells was also studied, comparing it to a control FAM-RPAR peptide which has a similar charge.

mouse brain [3] = assay: FAM-Cerepep brain distribution; type: in vivo; settings: 100 μl of 2 mM i.v., 2.5 h circulation
Protocol: To assess the ability of FAM-conjugated to Cerepep to traverse the BBB, 100 μl of 2 mM FAM-Cerepep or FAM-scrambled Control peptide (SARVISRAKLARAL (SEQ ID NO:70)) was injected into the tail vein of mice n=3. After 2.5 h of circulation, the animals were anesthetized and perfused, the brains were collected, cryosected, fixed, permeabilized, and incubated with CD31-rat and anti-fluorescein-rabbit primary antibodies at room temperature for 2 hours. After washes, sections were incubated with Alexa Fluor […] anti-rat and Alexa Fluor 647 anti-rabbit secondary antibodies, washed and stained with DAPI. Images were taken using a confocal microscope in 4 different areas of the brain (cortex, cerebellum, hippocampus, brainstem).
To quantify FAM-Cerepep in different regions of the brain, expts were set up to assess fluorescence intensity. Briefly, 100 μl of 2 mM FAM-Cerepep or FAM-scrambled peptide (SARVISRAKLARAL (SEQ ID NO:70)) was injected into the tail vein of mice n=3. […] Images were taken under a confocal microscope in 4 different areas of the brain (cortex, cerebellum, hippocampus, brainstem), and fluorescence intensity in each brain region was measured and quantified using ImageJ, as depicted in FIGS. 22A-22E.

mature neurons = assay: FAM-Cerepep colocalization with mature neurons; type: in vivo, mouse; settings: 100 μl of 2 mM i.v., 2.5 h
Protocol: (§1) To assess the ability of FAM-conjugated to Cerepep to colocalize with mature neurons, 100 μl of 2 mM FAM-Cerepep or FAM-scramble (SARVISRAKLARAL (SEQ ID NO: 70)) was injected into the tail vein of mice n=3. After 2.5 h of circulation, the animals were anesthetized and perfused, the brains were collected, cryosected, fixed, permeabilized, and incubated with NeuN-mouse and anti-fluorescein-rabbit primary antibodies for 2 hours at room temperature. After washes, sections were incubated with Alexa Fluor […] anti-mouse and Alexa Fluor 647 anti-rabbit secondary antibodies, sections were washed and stained with DAPI. Pictures were taken under a confocal microscope in 4 different areas of the brain (cortex, cerebellum, hippocampus, brainstem).

astrocytes = assay: FAM-Cerepep colocalization with astrocytes; type: in vivo, mouse; settings: 100 μl of 2 mM i.v., 2.5 h
Protocol: as §1, with “astrocytes,” for “mature neurons,”, “NO:70))” for “NO: 70))”, “GFAP-rat” for “NeuN-mouse”, “anti-rat” for “anti-mouse”

microglia = assay: FAM-Cerepep colocalization with microglia; type: in vivo, mouse; settings: 100 μl of 2 mM i.v., 2.5 h
Protocol: To assess the ability of FAM-conjugated to Cerepep to colocalize with microglia, 100 μl of 2 mM FAM-Cerepep or FAM-scramble (SARVISRAKLARAL (SEQ ID NO: 70)) was injected into the tail vein of mice n=3. After 2.5 h of circulation, the animals were anesthetized and perfused, the brains were collected, cryosected, fixed, permeabilized, and incubated with CD11b-rat and anti-fluorescein-rabbit primary antibodies at room temperature for 2 hours. After washes, sections were incubated with Alexa Fluor […] anti-rat and Alexa Fluor 647 anti-rabbit secondary antibodies, sections were washed and stained with DAPI. Pictures were taken under a confocal microscope in 4 different areas of the brain (cortex, cerebellum, hippocampus, brainstem).

activated microglia = assay: FAM-CVG colocalization with activated microglia in glioma; type: in vivo, mouse; settings: FAM-labelled, i.v., 1 h; WT GBM, glioma edge and core
Protocol: WT GBM glioma-bearing mice were injected iv with FAM-labelled CVG peptide for 1 hour circulation. Mice were perfused and tissues of interest were snap-frozen in the vapor of liquid nitrogen. Immunofluorescent staining was carried out with the following antibodies: FAM, CD68, CD11b and CD206.

mouse brain [4] = assay: In vivo play-off of alanine-scan peptide-phages; settings: 5×10^9 pfu phage mix i.v., 1 h, HTS
Protocol: To determine which amino acid positions are important for brain homing of Cerepep, in vivo play-off method was used. A pool of T7 peptide-phages was created, where each amino acid of Cerepep sequence was changed one-by-by to alanine and alanines were changed to leucines. These clones, original Cerepep peptide-phage clone and control insertless phage were mixed in equimolar ratio and 5×10^9 pfu of phage mix was injected i.v. into male Balb/C mice (n=2). Following 1 h circulation the animals were anesthetized and perfused with PBS. The prevalence of phage clones in the brain was determined by high throughput sequencing.
To determine which amino acid positions are important for brain homing of SERVISRAKLAAAL (SEQ ID NO:9), a pool of peptide-phage clones was compiled, where every amino acid position was one-by-one changed to alanine (alanines were changed to leucines). […] The phage mix was injected into mice and following a 1 h circulation the amount of different phage clones in the brain was determined using HTS. […]
Based on studies involving in vivo play-off analyses, it was determined that Arginines and isoleucine are crucial for the brain homing of Cerepep (CP) peptide. Every position of CP peptide was one-by one mutated to alanine (alanines were changed to leucines) and the brain homing of each mutated peptide-phage was assessed using in vivo play-off method (FIG. 7C). […]

## CAGALCY [reference compound]
Mouse brain [1]
  representation in the brain (HTS reads): highest representation in the brain
Mouse brain [2]; round 1
  R1 reads: 3 reads
Mouse brain [2]; round 3
  R3 reads: 880 reads
Mouse brain [2]; round 3 / round 1
  R3 > R1 (ratio of sequencing reads between round 3 and round 1): 293

## FAM-Ahx-SRRVISRAKLAAAL-OH ({FAM-Ahx}-SRRVISRAKLAAAL-OH) [FAM-Cerepep]
Neuro2A cells
  binding and uptake of FAM-peptide: bound to and was taken up by Neuro2A cells
Mouse brain [3]
  detection in brain: could be detected in the brain tissues
Mature neurons
  association with neurons (NeuN): could be detected associated with neurons in the brain tissues
astrocytes
  association with astrocytes (GFAP): could be detected associated with astrocytes in the brain tissues
microglia
  association with microglia (CD11b): could be detected associated with microglia in the brain tissues

## FAM-labelled CVG peptide: 5(6)-carboxyfluorescein-labelled CVGTNCY peptide (not fully specified (N-terminus); cysteine pairing not given here; also: 5(6)-carboxyfluorescein label, position not given here)
Activated microglia
  colocalization with activated microglia markers CD68, CD11b and CD206: colocalization with activated microglia markers CD68, CD11b and CD206 cells

## RRVISRAKLAAAL
Mouse brain [4]
  brain homing / brain accumulation of mutated peptide-phage: appear to be necessary for brain homing

— patent US20260347399A1, “BRAIN PENETRATING PEPTIDES AND METHODS OF USE” (priority 2022, published 2026)
